Measured values published in article PMC12000319, “Proton conductance by human uncoupling protein 1 is inhibited by purine and pyrimidine nucleotides” (The EMBO Journal, 2025).
Several values for one entry are separate records, joined by “and”; a condition that tells them apart may be missing. Identical values can stand only once. Like-named read-outs stand apart in the source and are kept apart here.

Columns and labels:
[1] = test system: UCP1; parameters: method as in Heaton and Nicholls, 1977; conditions: ref Heaton and Nicholls, 1977; cited from earlier work
[2] = target: T1, UCP1 (Homo sapiens, UniProt P25874); experiment: Differential scanning fluorimetry (nanoDSF) thermal stability shift assay; type: binding; conditions: for ΔTm at 1000 µM: read-out: thermal shift (ΔTm)
T1 construct: His8 (N, cleaved yes); Factor Xa protease cleavage site (N, cleaved yes); made in house; host or cells: Saccharomyces cerevisiae strain W303.1B
T1 sequence (P25874 1-307): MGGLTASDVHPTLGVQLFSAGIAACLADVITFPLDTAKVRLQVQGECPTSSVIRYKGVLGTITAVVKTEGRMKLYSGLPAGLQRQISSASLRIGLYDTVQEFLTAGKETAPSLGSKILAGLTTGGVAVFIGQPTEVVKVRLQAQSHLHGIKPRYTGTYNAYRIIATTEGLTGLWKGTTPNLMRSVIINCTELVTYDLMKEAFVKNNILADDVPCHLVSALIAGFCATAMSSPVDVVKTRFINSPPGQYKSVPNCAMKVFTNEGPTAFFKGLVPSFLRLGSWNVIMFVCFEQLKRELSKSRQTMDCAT

[3] = target: T1, UCP1; experiment: Isothermal titration calorimetry of nucleotide binding; parameters: isotherm data point (enthalpy change per injection): unit not given here; conditions: for isotherm data point (enthalpy change per injection): representative isotherm, pH 6.0, 20 °C;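 on all read-outs here: purified human UCP1 in cacodylate buffer with lauryl maltose neopentyl glycol and cardiolipin, titrated with nucleotides, isotherms fitted by one-site model yielding ΔH, Kd and stoichiometry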
[4] = test system: UCP1; parameters: method as in Heaton and Nicholls, 1977; Divakaruni et al, 2012; conditions: whole mitochondria; ref Heaton and Nicholls, 1977; Divakaruni et al, 2012; cited from earlier work
[5] = target: T2, human DIC (SLC25A10) (Homo sapiens, UniProt Q9UBX3); experiment: Differential scanning fluorimetry (nanoDSF) thermal stability shift assay; type: binding; conditions: 1 mM nucleotide, pH 6.0, single repeats (source data Fig. 4A)
T2 construct: His8 (N, cleaved yes); Factor Xa protease cleavage site (N, cleaved yes); made in house; host or cells: Saccharomyces cerevisiae protease-deficient strain BJ2186
T2 sequence (Q9UBX3 1-287): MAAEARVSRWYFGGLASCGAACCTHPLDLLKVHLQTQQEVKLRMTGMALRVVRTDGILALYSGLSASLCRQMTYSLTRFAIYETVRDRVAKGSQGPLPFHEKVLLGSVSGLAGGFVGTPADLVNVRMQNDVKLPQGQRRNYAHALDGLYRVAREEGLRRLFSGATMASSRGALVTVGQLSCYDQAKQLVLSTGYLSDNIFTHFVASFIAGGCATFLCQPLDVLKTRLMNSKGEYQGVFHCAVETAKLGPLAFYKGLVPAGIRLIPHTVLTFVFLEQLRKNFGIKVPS

O=c1ccn([C@@H]2O[C@H](CO[P@@](=O)(O)O[P@@](=O)(O)OP(=O)(O)O)[C@@H](O)[C@H]2O)c(=O)[nH]1 (stereo in doubt) [UTP, uridine triphosphate]
inhibition of proton conductance [1]: significantly lower than that of purine nucleotides | temperature shift (ΔTm) ([2]; 1 mM nucleotide, pH 6.0, detergent-solubilised UCP1, mean of three biological repeats): 15.3 °C | effect of Ca2+ or Mg2+ on nucleotide binding to UCP1 (ΔTm) ([2]; 1 mM nucleotide, pH 6.0, range of Ca2+ or Mg2+ concentrations, until supramaximal concentrations): no difference for either cation | ΔTm at 1000 µM ([2]; pH 6, 1 mM nucleotide, pH 6.0, single repeats (source data Fig. 1D)): 15.7 °C | ΔTm at 1000 µM ([2]; pH 6.5, 1 mM nucleotide, pH 6.5, single repeats (source data Fig. 1D)): 11.1 °C | ΔTm at 1000 µM ([2]; pH 7, 1 mM nucleotide, pH 7.0, single repeats (source data Fig. 1D)): 6.3 °C | ΔTm at 1000 µM ([2]; pH 7.5, 1 mM nucleotide, pH 7.5, single repeats (source data Fig. 1D)): 1.4 °C | binding affinity to UCP1 (in words) ([3]; ITC): intermediary affinities | isotherm data point (enthalpy change per injection) ([3]; Molar ratio (Nucleotide/UCP) 0.120417): -22.5081 | isotherm data point (enthalpy change per injection) ([3]; Molar ratio (Nucleotide/UCP) 0.181226): -22.8003 | isotherm data point (enthalpy change per injection) ([3]; Molar ratio (Nucleotide/UCP) 0.242439): -21.4037 | isotherm data point (enthalpy change per injection) ([3]; Molar ratio (Nucleotide/UCP) 0.304059): -20.9646 | isotherm data point (enthalpy change per injection) ([3]; Molar ratio (Nucleotide/UCP) 0.366087): -21.4794 | isotherm data point (enthalpy change per injection) ([3]; Molar ratio (Nucleotide/UCP) 0.428528): -19.8691 | isotherm data point (enthalpy change per injection) ([3]; Molar ratio (Nucleotide/UCP) 0.491383): -17.9061 | isotherm data point (enthalpy change per injection) ([3]; Molar ratio (Nucleotide/UCP) 0.554656): -18.3443 | isotherm data point (enthalpy change per injection) ([3]; Molar ratio (Nucleotide/UCP) 0.618348): -16.1153 | isotherm data point (enthalpy change per injection) ([3]; Molar ratio (Nucleotide/UCP) 0.682464): -14.9337 | isotherm data point (enthalpy change per injection) ([3]; Molar ratio (Nucleotide/UCP) 0.747006): -12.0255 | isotherm data point (enthalpy change per injection) ([3]; Molar ratio (Nucleotide/UCP) 0.811976): -11.5031 | isotherm data point (enthalpy change per injection) ([3]; Molar ratio (Nucleotide/UCP) 0.877378): -10.3349 | isotherm data point (enthalpy change per injection) ([3]; Molar ratio (Nucleotide/UCP) 0.943214): -7.729 | isotherm data point (enthalpy change per injection) ([3]; Molar ratio (Nucleotide/UCP) 1.00949): -6.6657 | isotherm data point (enthalpy change per injection) ([3]; Molar ratio (Nucleotide/UCP) 1.0762): -5.447 | isotherm data point (enthalpy change per injection) ([3]; Molar ratio (Nucleotide/UCP) 1.14336): -3.759 | isotherm data point (enthalpy change per injection) ([3]; Molar ratio (Nucleotide/UCP) 1.21096): -3.295 | isotherm data point (enthalpy change per injection) ([3]; Molar ratio (Nucleotide/UCP) 1.27901): -1.9786 | isotherm data point (enthalpy change per injection) ([3]; Molar ratio (Nucleotide/UCP) 1.34751): -1.408 | isotherm data point (enthalpy change per injection) ([3]; Molar ratio (Nucleotide/UCP) 1.41647): -0.3952 | isotherm data point (enthalpy change per injection) ([3]; Molar ratio (Nucleotide/UCP) 1.48589): -0.4843 | isotherm data point (enthalpy change per injection) ([3]; Molar ratio (Nucleotide/UCP) 1.55577): -0.1953 | isotherm data point (enthalpy change per injection) ([3]; Molar ratio (Nucleotide/UCP) 1.62611): -0.1185 | isotherm data point (enthalpy change per injection) ([3]; Molar ratio (Nucleotide/UCP) 1.69692): 0.2895 | isotherm data point (enthalpy change per injection) ([3]; Molar ratio (Nucleotide/UCP) 1.76819): -0.544 | isotherm data point (enthalpy change per injection) ([3]; Molar ratio (Nucleotide/UCP) 1.83995): -0.2075 | isotherm data point (enthalpy change per injection) ([3]; Molar ratio (Nucleotide/UCP) 1.91217): -0.08977 | isotherm data point (enthalpy change per injection) ([3]; Molar ratio (Nucleotide/UCP) 1.98488): 0.02152 | competition with GDP binding [4]: could only weakly compete with GDP binding | change in apparent melting temperature (ΔTm) of hDIC [5]: 0.8 and 0.6
